Measurements reported in the supplement of paper PMC5908809.

Key:
NKL (IL-2 2.5 ng/mL) [1] = assay: relative IC50 (inflection point of fitted viability curve, relative to fitted max inhibition); higher = less sensitive; conditions: 72 h
Method: (§1)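 Drug sensitivity and resistance testing: 5 concentrations over a 10,000-fold range, 72 h at 37 °C, viability by CellTiter-Glo normalised to DMSO and benzethonium chloride controls. IC50 is the inflection point of a logistic fit (min fixed at 0, max fitted), so it is relative to the fitted maximal inhibition. Kept only where fitted max inhibition is at least 50%.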

DERL-7 (IL-2 2.5 ng/mL) [2] = assay: as above; conditions: 72 h
Method: as §1

[3] = test system: normal NK cells expanded with K562-aAPC; assay: percent inhibition of viability; higher = more inhibition; conditions: 72 h, IL-2 2.5 ng/mL
Method: (§2)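 Drug sensitivity and resistance testing on K562-aAPC-expanded normal NK cells: 5 concentrations (10-fold steps over a 10,000-fold range), 72 h at 37 °C, viability by CellTiter-Glo normalised to DMSO and benzethonium chloride controls; DSS from the fitted curve.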

DERL-7 (IL-2 2.5 ng/mL) [4] = assay: as above; conditions: 72 h
IMC-1 (IL-2 20 ng/mL) [5] = assay: as above; conditions: 72 h
KAI3 (IL-2 2.5 ng/mL) [6] = assay: as above; conditions: 72 h
KHYG-1 (IL-2 2.5 ng/mL) [7] = assay: as above; conditions: 72 h
NK-92 (IL-2 2.5 ng/mL) [8] = assay: as above; conditions: 72 h
NK-YS (IL-2 2.5 ng/mL) [9] = assay: as above; conditions: 72 h
NKL (IL-2 2.5 ng/mL) [10] = assay: as above; conditions: 72 h
SNK-6 (IL-2 2.5 ng/mL) [11] = assay: as above; conditions: 72 h
YT (IL-2 2.5 ng/mL) [12] = assay: as above; conditions: 72 h
[13] = test system: normal primary NK cells, pool 1 (3 donors) (IL-2 2.5 ng/mL); assay: as above; conditions: 72 h
[14] = test system: normal primary NK cells, pool 1 (3 donors), resting (IL-2 0 ng/mL); assay: as above; conditions: 72 h
[15] = test system: normal primary NK cells, pool 2 (3 donors) (IL-2 2.5 ng/mL); assay: as above; conditions: 72 h
[16] = test system: normal primary NK cells, pool 3 (3 donors) (IL-2 2.5 ng/mL); assay: as above; conditions: 72 h
[17] = test system: normal NK cells expanded with K562-aAPC; assay: drug sensitivity score (DSS) (DSS units); higher = more sensitive; extreme values may be limits of the assay; conditions: 72 h; IL-2 2.5 ng/mL
Method: as §2

DERL-7 (IL-2 2.5 ng/mL) [18] = assay: as above; conditions: 72 h
IMC-1 (IL-2 20 ng/mL) [19] = assay: as above; conditions: 72 h
KAI3 (IL-2 2.5 ng/mL) [20] = assay: as above; conditions: 72 h
KHYG-1 (IL-2 2.5 ng/mL) [21] = assay: as above; conditions: 72 h
NK-92 (IL-2 2.5 ng/mL) [22] = assay: as above; conditions: 72 h
NK-YS (IL-2 2.5 ng/mL) [23] = assay: as above; conditions: 72 h
NKL (IL-2 2.5 ng/mL) [24] = assay: as above; conditions: 72 h
SNK-6 (IL-2 2.5 ng/mL) [25] = assay: as above; conditions: 72 h
YT (IL-2 2.5 ng/mL) [26] = assay: as above; conditions: 72 h
[27] = test system: normal primary NK cells, pool 1 (3 donors) (IL-2 2.5 ng/mL); assay: as above; conditions: 72 h
[28] = test system: normal primary NK cells, pool 1 (3 donors), resting (IL-2 0 ng/mL); assay: as above; conditions: 72 h
[29] = test system: normal primary NK cells, pool 2 (3 donors) (IL-2 2.5 ng/mL); assay: as above; conditions: 72 h
[30] = test system: normal primary NK cells, pool 3 (3 donors) (IL-2 2.5 ng/mL); assay: as above; conditions: 72 h

Cc1ccc(NC(=O)c2ccc(CN3CC[C@H](N(C)C)C3)c(C(F)(F)F)c2)cc1Nc1nccc(-c2cncnc2)n1 [Bafetinib]
Conditions	relative IC50 [nM]
NKL (IL-2 2.5 ng/mL) [1]	136

COc1cc(C(=O)NC2CCN(C)CC2)c(F)cc1Nc1ncc2c(n1)N(C1CCCC1)CC(F)(F)C(=O)N2C [TAK-960]
Conditions	relative IC50 [nM]
DERL-7 (IL-2 2.5 ng/mL) [2]	> 2500

CC(C)C(=O)Nc1ccc([N+](=O)[O-])c(C(F)(F)F)c1 [Flutamide] (max concentration tested 10000 nM)
percent inhibition of viability [%]
Conditions	1 nM	10 nM	100 nM	1000 nM	10000 nM
DERL-7 (IL-2 2.5 ng/mL) [4]	0.26	11.3	-2.83	6.87	2.11
IMC-1 (IL-2 20 ng/mL) [5]	-0.8	-1.46	-1.68	-2.71	12.2
KAI3 (IL-2 2.5 ng/mL) [6]	-0.84	-1.39	-3.89	-2.15	-17.5
KHYG-1 (IL-2 2.5 ng/mL) [7]	-7.32	-1.75	-9.49	-4.37	-1.22
NK-92 (IL-2 2.5 ng/mL) [8]	-9.52	-2.4	-7.94	12.1	22.5
NK-YS (IL-2 2.5 ng/mL) [9]	-0.08	-3.58	-2.41	-5.97	2.23
NKL (IL-2 2.5 ng/mL) [10]	-6.29	8.8	-0.67	5.38	-13.1
SNK-6 (IL-2 2.5 ng/mL) [11]	21.7	46.8	-5.11	31.3	24.2
YT (IL-2 2.5 ng/mL) [12]	-7.4	6	-4.1	6.56	19.1
[3]	-8.49	-7.43	-8.84	-8.3	-13.9
[13]	-3.89	-10.2	-4.34	-7.61	-4.01
[14]	-8.17	-16.6	6.26	-12.5	8.25
[15]	7.09	-4.46	-3.61	-2.09	6.81
[16]	-0.96	0.66	3.21	-0.91	1.69

Conditions	drug sensitivity score
DERL-7 (IL-2 2.5 ng/mL) [18]	0
IMC-1 (IL-2 20 ng/mL) [19]	0.02
KAI3 (IL-2 2.5 ng/mL) [20]	0
KHYG-1 (IL-2 2.5 ng/mL) [21]	0
NK-92 (IL-2 2.5 ng/mL) [22]	2.07
NK-YS (IL-2 2.5 ng/mL) [23]	0
NKL (IL-2 2.5 ng/mL) [24]	0
SNK-6 (IL-2 2.5 ng/mL) [25]	0
YT (IL-2 2.5 ng/mL) [26]	1.25
[17]	0
[27]	0
[28]	0
[29]	0
[30]	0

Nc1cccc2c1CN(C1CCC(=O)NC1=O)C2=O (stereo not drawn) [Lenalidomide] (max concentration tested 100000 nM)
percent inhibition of viability [%]
Conditions	10 nM	100 nM	1000 nM	10000 nM	100000 nM
DERL-7 (IL-2 2.5 ng/mL) [4]	-8.15	-7.59	-6.54	-8.34	-1.1
IMC-1 (IL-2 20 ng/mL) [5]	-4.67	1.54	2.6	7.23	12.5
KAI3 (IL-2 2.5 ng/mL) [6]	-8.97	1.64	-0.65	10.5	50.6
KHYG-1 (IL-2 2.5 ng/mL) [7]	-5.45	0.35	0.75	5.6	18.1
NK-92 (IL-2 2.5 ng/mL) [8]	-4.74	-0.2	7.52	10.4	35.1
NK-YS (IL-2 2.5 ng/mL) [9]	-1.44	-1.49	0.99	3.35	15.9
NKL (IL-2 2.5 ng/mL) [10]	-12.2	-2.95	-12.4	8.93	39.2
SNK-6 (IL-2 2.5 ng/mL) [11]	5.02	1.16	7.72	40.7	50.3
YT (IL-2 2.5 ng/mL) [12]	0.52	3.88	7	1.78	15.6
[3]	-4.41	-0.84	-0.51	11.3	16.5
[13]	4.48	-7.64	6.17	0.68	22
[14]	1.29	-2.98	10.6	35.5	59.5
[15]	-16.8	-10.4	4.67	-3.79	13.3
[16]	-9.99	-13.1	8.3	-7.53	12.1

Conditions	drug sensitivity score
DERL-7 (IL-2 2.5 ng/mL) [18]	0
IMC-1 (IL-2 20 ng/mL) [19]	0.13
KAI3 (IL-2 2.5 ng/mL) [20]	4.39
KHYG-1 (IL-2 2.5 ng/mL) [21]	1.04
NK-92 (IL-2 2.5 ng/mL) [22]	2.68
NK-YS (IL-2 2.5 ng/mL) [23]	0.64
NKL (IL-2 2.5 ng/mL) [24]	3.34
SNK-6 (IL-2 2.5 ng/mL) [25]	8.33
YT (IL-2 2.5 ng/mL) [26]	0.46
[17]	1.25
[27]	0.82
[28]	7.86
[29]	0.06
[30]	0.01

Cc1c(C(=O)Nc2ccc(N3C[C@@H](C)O[C@@H](C)C3)nc2)cccc1-c1ccc(OC(F)(F)F)cc1 [Sonidegib] (max concentration tested 10000 nM)
percent inhibition of viability [%]
Conditions	1 nM	10 nM	100 nM	1000 nM	10000 nM
DERL-7 (IL-2 2.5 ng/mL) [4]	-6.39	0.97	3.22	7.44	7.71
IMC-1 (IL-2 20 ng/mL) [5]	-2.05	0.95	10.7	7.33	66.2
KAI3 (IL-2 2.5 ng/mL) [6]	-9.76	2.17	-0.83	-2.67	26.2
KHYG-1 (IL-2 2.5 ng/mL) [7]	1.09	-0.52	4.83	5.39	33.4
NK-92 (IL-2 2.5 ng/mL) [8]	5.8	1.52	11.2	33.5	79.3
NK-YS (IL-2 2.5 ng/mL) [9]	-0.38	2.73	7.41	11.1	31.1
NKL (IL-2 2.5 ng/mL) [10]	-6.67	3.73	-0.64	6.28	26.8
SNK-6 (IL-2 2.5 ng/mL) [11]	4.68	24.7	23.1	15.3	25.6
YT (IL-2 2.5 ng/mL) [12]	1.1	5.23	7.91	6.65	37
[3]	-1.35	-1.33	-0.97	6.62	11.9
[13]	2.22	-1.01	1.87	-6.02	-0.78
[14]	7.84	-5.48	2.43	-23.8	-13.6
[15]	-5.58	-3.94	1.51	-3.08	-2.7
[16]	-16.4	-5.96	3.9	-2.57	-0.38

Conditions	drug sensitivity score
DERL-7 (IL-2 2.5 ng/mL) [18]	0
IMC-1 (IL-2 20 ng/mL) [19]	4.85
KAI3 (IL-2 2.5 ng/mL) [20]	0.87
KHYG-1 (IL-2 2.5 ng/mL) [21]	2.43
NK-92 (IL-2 2.5 ng/mL) [22]	8.23
NK-YS (IL-2 2.5 ng/mL) [23]	2.3
NKL (IL-2 2.5 ng/mL) [24]	2.01
SNK-6 (IL-2 2.5 ng/mL) [25]	10.6
YT (IL-2 2.5 ng/mL) [26]	2.89
[17]	0.28
[27]	0
[28]	0
[29]	0
[30]	0

c1ccc([C@H]2CN3CCSC3=N2)cc1 [Levamisole] (max concentration tested 10000 nM)
percent inhibition of viability [%]
Conditions	1 nM	10 nM	100 nM	1000 nM	10000 nM
DERL-7 (IL-2 2.5 ng/mL) [4]	-5.12	0.58	-3.2	-6.8	-8.1
IMC-1 (IL-2 20 ng/mL) [5]	0.36	-1.13	-6.73	-2.24	-6.39
KAI3 (IL-2 2.5 ng/mL) [6]	-7.01	-9.23	-10.5	-11.1	-14.3
KHYG-1 (IL-2 2.5 ng/mL) [7]	-4.84	-2.9	-4.9	-1.62	-2.11
NK-92 (IL-2 2.5 ng/mL) [8]	-11.8	-18.9	-18.4	-24.3	-19.2
NK-YS (IL-2 2.5 ng/mL) [9]	-2.25	-3.37	-7.18	-2.36	-6.1
NKL (IL-2 2.5 ng/mL) [10]	-11.2	0.14	-6.49	-4.45	-10.6
SNK-6 (IL-2 2.5 ng/mL) [11]	3.65	13.1	-14.1	-5.97	-47.5
YT (IL-2 2.5 ng/mL) [12]	-3.76	-6.23	-5.31	-5.18	-4.44
[3]	-4.29	-11	-5.79	-6.94	-11
[13]	-7.56	-2.22	4.92	-0.77	2.81
[14]	-4.85	-2.06	13.8	4.07	3.16
[15]	-4.91	-0.55	-10.1	-7.03	-10.1
[16]	-8.31	-11.3	-9.28	-4.76	-5.98

Conditions	drug sensitivity score
DERL-7 (IL-2 2.5 ng/mL) [18]	0
IMC-1 (IL-2 20 ng/mL) [19]	0
KAI3 (IL-2 2.5 ng/mL) [20]	0
KHYG-1 (IL-2 2.5 ng/mL) [21]	0
NK-92 (IL-2 2.5 ng/mL) [22]	0
NK-YS (IL-2 2.5 ng/mL) [23]	0
NKL (IL-2 2.5 ng/mL) [24]	0
SNK-6 (IL-2 2.5 ng/mL) [25]	0
YT (IL-2 2.5 ng/mL) [26]	0
[17]	0
[27]	0
[28]	0
[29]	0
[30]	0
